Measured values reported in patent publication US20230102836A1, “Amoebicidal Compositions for Contact Lens Solutions” (University of the West of Scotland, priority 2019, published 2023).
Where “and” joins values, the source holds several entries; their conditions need not be identical. Identical values can stand only once.

Key:
[1] = test system: A. castellanii trophozoites; assay: DNA-agarose gel electrophoresis of gDNA of treated trophozoites; format: cell-based, Acanthamoeba castellanii; conditions: 18.75 μg/ml after 96 h
Protocol: (§1) Genomic deoxynucleic acids (gDNA) from 10^8 A. castellanii trophozoites (treated with and without QAC) were extracted from cells harvested by centrifugation (850×g, 10 min), lysed with UNSET buffer (8M urea, 150 μM NaCl, 2% SDS, […] ethylenediaminetetraacetic acid (EDTA), […] Tris-HCl, pH 7.5) and the DNA extracted with phenol-chloroform (1:1 v/v). The biphasic suspension with DNA enriched on the […] was centrifuged (12,000×g for 15 min, 4° C.) for clear separation and transferred to a new microcentrifuge tube. The DNA was precipitated with cold ethanol (100%, v/v) and 0.3M sodium acetate, washed twice with 70% (v/v) ethanol (12,000×g for 10 min, 4° C.), air dried and resuspended in distilled water.

gDNA from A. castellanii = assay: QAC-DNA interaction assay; format: binding, Acanthamoeba castellanii; conditions: DNA:QAC ratios 1:0, 1:1, 1:10, 1:20; 15 min
Protocol: FIGS. 3A and 3B show the QAC-DNA interaction. The absorbance of genomic DNA (0.6 ng/ml) extracted from A. castellani trophozoites measured at 260 nm with the Nanodrop after incubating for 15 minutes with 0 ng/ml, 0.6 ng/ml, 6 ng/ml or 12 ng/ml of QAC12 (FIG. 3A) or QAC16 (FIG. 3B) to give ratios of 1:0, 1:1, 1:10 and 1:20. DNA absorbance increased and decreased with increased […] and [QAC12] respectively. Data is mean absorbance at 260 nm±SD; n=4 independent experiments performed in triplicates.
as §1, with “water. […]” for “water.”

A. castellanii cysts = assay: Extrusion of cytoplasmic constituents (DNA, protein) from cysts; format: cell-based, Acanthamoeba castellanii ATCC 50370
Source text: FIGS. 9A-9B show the extrusion of cytoplasmic constituents of A. castellani cysts to the external milieu after QAC treatment. DNA (FIG. 9A) and Protein (FIG. […] 9A) and at 280 nm (FIG. 9B) respectively. Data is mean absorbance at 260 nm (FIG. 9A) and 280 nm (FIG. 9B)±SD respectively: n=4 independent experiments performed in triplicates.
Protein concentration in cell extract and media of QAC-treated and untreated A. castellanii trophozoites was estimated at 280 nm using the Nanodrop® ND-1000 and expressed as ng/μl protein. DNA concentrations were estimated similarly at 260 nm and expressed as ng/μl.

[2] = test system: Acanthamoeba trophozoites; assay: Checkerboard dilution QAC-APC interaction (Bliss model); format: cell-based, Acanthamoeba castellanii; conditions: APC12, APC14, APC16; 96 h at 25° C.
Protocol: Acanthamoeba trophozoites (10^5 cells/ml. n=5/treatment) treated with 100 μg/ml doubly diluted to 0.06 μg/ml of QAC12 (FIG. 7A), […], QAC16 (FIG. 7C) and QAC18 (FIG. 7D) with APC 12 (i), APCI 4 (ii) and APC16 (iii) for 96 h at 25° C. Cell viability estimated by the alamarBlue assay the dose-response curves used to produce a surface analysis (right panel) and the interaction profile determined using the Bliss model. The degree of interaction characterised by the QCScore heuristic score are produced as heat map (left panel). The colour of each cell in the heatmap and the surface analysis represents the assay response at that dose combination; red to orange, antagonistic: yellow to green, additive and blue, synergistic.
The change in potency between QAC and APC prompted us to used the checkerboard dilution method to identify synergistic interactions (FIG. 7A-D). Three interaction profiles, antagonistic (orange to red), additive (yellow to green) and synergistic (blue) were observed, with optimal synergistic interactions deemed to be significant occurring between 20-38%; (FIG. 7).

[3] = test system: A. castellanii trophozoites; assay: Cytotoxicity assay on trophozoites (resazurin / alamarBlue); format: cell-based, Acanthamoeba castellanii ATCC 50370; conditions: Acanthamoeba castellanii; Table 2; read-out: IC50 A. castellanii trophozoites
Protocol: Acanthamoeba castellanii ATCC 50370 trophozoites and cysts were cultured in Peptone Glucose (PG) medium and encystment medium (Chagla A H, Griffiths A J (1974) Microbiology: 85(1): 139-145) respectively at 25° C. Cysts were prepared by incubating trophozoites for 8 days in encystment medium and integrity validated with calcofluor (0.25 μg/ml) assay (Gatti S et al (2010) J. Med. Microbiol.; 59: 1324-1330) or sodium dodecyl sulfate (SDS, 0.5% w/v) disintegration assay (Dudley R et al (2005) Acta Trop.; 9: 100-8) and microscopic observation.
The compounds used in this study all contained alkyl-carbon chains: three APCs [dodecyl-PC (APC12), tetradecyl-PC. (APC14) and hexadecyl-PC (APC16)] (Anatrace) and four QACs [docdecyl-TMAB (QAC12), tetradecyl-TMAB (QAC14), hexadecyl-TMAB (QAC16) and octadecyl-TMAB (QAC18)](Sigma). All were prepared to a stock concentration of 1 mg/ml and diluted as required by the experimental protocol in the cytotoxicity assays. […]
[…] Resazurin (7-Hydroxy-31-phenoxazin-3-one 10-oxide; 5 mg/ml; McBride J et al (2005) J. Clin. Microbiol.; 43: 629-634) and trypan blue (0.4 μg/ml; Mafra C S P et al (2013) Investig. Ophthalmol. Vis. Si.; 54: 6363-6372) were then added to trophozoites and cysts respectively after being exposed to the compounds and the cell viability estimated microscopically and from changes in absorbance (at 595 nm and 570 nm) respectively.
Efficacy was expressed as a percentage of untreated controls for each drug concentration used and the data used to calculate the IC50. Cell density was estimated using the modified Neubaur hemocytometer and expressed as cells/ml.

CCCCCCCCCCCCCCCCCC[N+](C)(C)C.[Br-] [QAC18, octadecyltrimethyl ammonium bromide]
Fragmented DNA profile that depicts death via apoptosis [1]: not observed
Change of gDNA absorbance at 260 nm with increasing QAC (gDNA from A. castellanii): progressively increased absorbance
Increase in DNA in the external milieu of cysts (A. castellanii cysts; after 1 h (FIG. 9A)): 40%
Increase in proteins in the external milieu of cysts (A. castellanii cysts; after 1 h (FIG. 9B)): 50%
Interaction profile of QAC combined with APCs [2]: No significant synergy
IC50 [3]: 1.06 µg/mL and 3 µM
